Experimental findings from patent US20260200903A1, “PHARMACEUTICAL COMPOSITION FOR AMELIORATING MALIGNANT DISEASES” (KINKI UNIVERSITY, priority 2020, published 2026) are described below.

For one experiment, the system named is L363 cells. Nature of the experiment: Tumor growth inhibition in mice transplanted with L363 cells. It counts as in vivo, NOD/ShiJic-scidJcl mice. To be noted: oral 100 mg/kg daily, day 24, vs control group (P<0.01). The method, then:
L363 cells were transplanted into NOD/ShiJic-scidJcl mice, and the tumor growth inhibitory effect of oral administration of M9 was examined. As a result, a remarkable tumor growth inhibitory effect was observed.
L363 cells were transplanted into NOD/ShiJic-scidJcl mice, and M9 was orally administered to the mice at 100 mg/kg daily on day 0 when the average tumor volume exceeded 100 mm^3, and tumor volume was measured on day 24.
The group that was only implanted with L363 cells is called the target group and the group that was treated with M9 is called the M9-treated group. Each group consisted of 5 animals.
(§1) Referring to the figure, the horizontal axis indicates drug treatment, and the vertical axis indicates tumor volume (percent of the control group).
White bars indicate the control group (labeled “Control”). Black bars indicate the M9 treatment group (labeled “100 mg/kg M9”). Those with significant differences (P<0.01) from the control group are marked with an asterisk (*).

The test system of the next experiment is Raji cells. Nature of the experiment: Tumor growth inhibition in mice transplanted with Raji cells. It counts as in vivo, NOD/ShiJic-scidJcl mice. The conditions noted are these: oral 50 mg/kg daily, day 21, vs control group (P<0.01). The protocol:
Raji cells were transplanted into NOD/ShiJic-scidJcl mice, and the tumor growth inhibitory effect of oral administration of M9 and M14 was examined. As a result, a remarkable tumor growth inhibitory effect was observed.
Raji cells were transplanted into NOD/ShiJic-scidJcl mice, and the mice were orally administered M9 at 50 mg/kg and M14 at 50 mg/kg daily on day 0 when the average tumor volume exceeded 100 mm^3, and the tumor volume was measured on day 21.
The group that was only transplanted with Raji cells is called the control group, the group that was treated with M9 is called the M9-treated group, and the group that was treated with M14 is called the M14-treated group. Each group consisted of 5 animals.
as §1
White bars indicate the control group (labeled “Control”). Black bars indicate the M9 treatment group (labeled “50 mg/kg M9”) and vertical bars indicate the M14 treatment group (labeled “50 mg/kg M14”).

In experiment [1] the test system is IgG. The experiment can be described thus: IgG secretion in KMS-28BM cells, ELISA. It counts as cell-based, human. To be noted: KMS-28BM culture supernatant after 10 days; compounds at 0.005-50 μM; control 1326 ng/mL. The protocol:
The inhibitory effect of each compound on IgG secretion was examined by enzyme-linked immunosorbent assay (ELISA) using KMS-28BM cells.
As a control, compounds untreated KMS-28BM cells were seeded in 75 cm^2 flasks and incubated for 10 days at 37° C. and 5% CO2. KMS-28BM cells were seeded into 75 cm^2 flasks and pre-cultured for 4 h. After incubation, KMS-28BM cells were treated with […], 0.05 μM M9, 0.1 μM yk-7, 0.1 μM yk-8-3, 50 μM yk-8-1, 0.5 μM M11, […], 0.005 μM M14, 0.005 μM M15, 0.005 μM M16, 0.5 μM M18, and 0.5 μM M19 at final concentrations, and incubated for 10 days at 37° C. and 5% CO2. After 10 days of incubation, the culture supernatant was collected and IgG secretion was measured by ELISA. This measurement was performed using a human anti-IgG antibody ELISA kit (Funakoshi).
A general note: In an ELISA, binding on a coated surface is turned into a signal by an enzyme label.

The test system of experiment [2] is IgG. The experiment can be described thus: IgG secretion in L363 cells, ELISA. To be noted: L363 culture supernatant after 10 days; compounds at 0.005-50 μM; control 2098 ng/mL. It is filed as cell-based, human. The method, then: The inhibitory effect of each compound on IgG secretion was examined by enzyme-linked immunosorbent assay (ELISA) using L363 cells.
As a control, compounds untreated L363 cells were seeded in 75 cm^2 flasks and incubated for 10 days at 37° C. and 5% CO2. L363 cells were seeded into 75 cm^2 flasks and pre-cultured for 4 h. After incubation, L363 cells were treated with 0.1 μM M7, 0.05 μM M9, 0.1 μM yk-7, 0.1 μM yk-8-3, 50 μM yk-8-1, 0.1 μM M11, 0.01 μM M12, 0.005 μM M14, 0.005 μM M15, 0.005 μM M16, 1 μM M18, and 1 μM M19 at final concentrations, and incubated for 10 days at 37° C. and 5% CO2. After 10 days of incubation, the culture supernatant was collected and IgG secretion was measured by ELISA. This measurement was performed using a human anti-IgG antibody ELISA kit (Funakoshi).

On to `CCC(=O)OC[C@H]1O[C@@H](c2c(O)cc3oc4cc(O)c(O)cc4c(=O)c3c2O)[C@H](OC(=O)CC)[C@@H](OC(=O)CC)[C@@H]1OC(=O)CC` [Compound M9, 2′,3′,4′,6′-tetra-O-propionylmangiferin], for which the “tumor growth (tumor volume, percent of the control group)” value in the experiment on L363 cells and in the experiment on Raji cells was “significant inhibition of tumor growth” throughout.

With `CCCC(=O)OC[C@H]1O[C@@H](c2c(OC(=O)CCC)cc3oc4cc(OC(=O)CCC)c(OC(=O)CCC)cc4c(=O)c3c2OC(=O)CCC)[C@H](OC(=O)CCC)[C@@H](OC(=O)CCC)[C@@H]1OC(=O)CCC` [Compound M11, 1,3,2′,3′,4′,6,6′,7-octa-O-butyrylmangiferin], the IgG secretion in the experiment on IgG [1] amounted to 61 ng/mL; in the experiment on IgG [2] it was 44 ng/mL.

Consider `CCCC(=O)OC[C@H]1O[C@@H](c2c(O)cc3oc4cc(O)c(O)cc4c(=O)c3c2O)[C@H](OC(=O)CCC)[C@@H](OC(=O)CCC)[C@@H]1OC(=O)CCC` [Compound M14, 2′,3′,4′,6′-tetra-O-butyrylmangiferin], for which the “tumor growth (tumor volume, percent of the control group)” value with Raji cells was “significant inhibition of tumor growth”.

For the compound `CCCCC(=O)OC[C@H]1O[C@@H](c2c(OC(=O)CCCC)cc3oc4cc(OC(=O)CCCC)c(OC(=O)CCCC)cc4c(=O)c3c2OC(=O)CCCC)[C@H](OC(=O)CCCC)[C@@H](OC(=O)CCCC)[C@@H]1OC(=O)CCCC` [yk-8-1, 1,3,2′,3′,4′,6,6′,7-octa-O-valerylmangiferin], the IgG secretion stood at 1117 ng/mL in the experiment on IgG [1] and 1474 ng/mL in the experiment with IgG [2].
